From ChEMBL document CHEMBL3301361, “Experimental in vitro DMPK and physicochemical data on a set of publicly disclosed compounds”
≈ marks a conversion by molar mass, not a printed value.

Columns and labels:
in vitro [1] = settings: SD, HW or BN, rat, plasma
in vitro [2] = settings: mouse, plasma
in vitro [3] = settings: human, plasma
physchem [4] = settings: octan-1-ol/water
physchem [5] = settings: pH 7.4 buffer
in vitro [6] = settings: Beagle, dog, plasma
in vitro [7] = settings: human, hepatocytes
in vitro [8] = settings: hepatocytes
physchem [9] = test: physchem
physchem [10] = test: physchem; remark: listed apart in the source

SMILES | fraction unbound at 5 h (in vitro [1]) | fraction unbound at 5 h (in vitro [2]) | fraction unbound at 5 h (in vitro [3]; PPB) | other results
CCC(CC)[C@@H](CO)NS(=O)(=O)c1ccc(Cl)s1 [GSI-136] | 0.0909 | 0.11 | – | –
c1cncc(Nc2ncc(-c3ccncn3)c(-c3ccco3)n2)c1 | 0.139 | 0.16 | 0.139 | –
Cc1nccn1-c1sc(Nc2cnccn2)nc1-c1cccc(C#N)c1 | 0.0437 | 0.0335 | 0.0437 | –
CN(C)CCC1CCN(c2cc(C(=O)NC[C@H]3CC[C@H](CNC(=O)OCC(C)(C)C)CC3)c3ccccc3n2)CC1 | 0.0133 | 0.0039 | 0.0139 | –
COc1ccc(C2(c3ccc(F)c(-c4cccnc4F)c3)N=C(N)N(C)C2=O)cc1C (centres undefined) | 0.0099 | 0.0081 | – | –
Cc1ncsc1C(=O)N(Cc1cc(=O)[nH]c2c(F)cccc12)c1cccc(Cl)c1 | 0.0836 | 0.0736 | 0.0209 | –
CC[C@H](Nc1ncnc2[nH]cnc12)c1nc2cccc(F)c2c(=O)n1-c1ccccc1 [IDELALISIB] | – | 0.19 | – | logD (physchem [4]; pH 7.4, LogD7.4): 2.72
O=C1Nc2cc(C(F)(F)F)ccc2C1(O)c1cc(Cl)ccc1O (centres undefined) | 0.0111 | 0.0219 | – | fraction unbound at 5 h (in vitro [3]): 0.0149
Cc1cc(-c2ccc(-c3nc4ccncc4c(O)c3C#N)cc2)ccn1 | – | 0.013 | 0.0041 | logD (physchem [4]; pH 7.4, LogD7.4): 1.6
CC(C)(C)OC(=O)NC[C@H]1CC[C@H](CNC(=O)c2cc(N3CCC(CCN4CC(O)C4)CC3)nc3ccccc23)CC1 | 0.0328 | 0.0139 | 0.03 | –
COc1cc(C(C)C)c(Oc2cnc(NC(CO)CO)nc2N)cc1I | 0.028 | 0.0581 | – | –
Cc1[nH]c(C(=O)NC2CCN(c3ncc(C(=O)O)s3)CC2)c(Cl)c1Cl | – | 0.197 | 0.0293 | –
O=C(Nc1ccc(CN2CCNCC2)cc1-c1nc2ccccc2[nH]1)c1cnc2ccccc2n1 | 0.0801 | 0.0033 | 0.0009 | –
Cc1cnc(C(=O)c2ncnc3[nH]ccc23)c(NS(=O)(=O)c2ccc(Cl)c(C(F)(F)F)c2)c1 [ILACIRNON] | 0.0021 | 0.0069 | 0.0009 | –
CCCn1c(=O)c2[nH]c(-c3cnn(Cc4cccc(C(F)(F)F)c4)c3)nc2n(CC)c1=O [GS 6201] | – | 0.001 | – | –
CCOc1cc(CN2CCC(Nc3nc4cc(S(N)(=O)=O)ccc4o3)CC2)cc(OCC)c1N | 0.11 | 0.0928 | 0.299 | –
O=C1CCc2cc(-c3cncc4ccccc34)ccc2N1 | 0.0313 | 0.0313 | 0.0358 | –
CCNc1cc(C(=O)N[C@@H](Cc2ccccc2)[C@H](O)CNCc2cccc(C(F)(F)F)c2)c(F)c(N2CCCCS2(=O)=O)c1 | – | 0.016 | 0.0119 | –
COc1ccc(-c2cc(C(F)F)nn2-c2ccc(S(N)(=O)=O)cc2)cc1F [DERACOXIB] | – | 0.0268 | – | logD (physchem [4]; pH 7.4, LogD7.4): 2.8
CCC#Cc1cncc(-c2ccc3c(c2)C2(N=C(C)C(N)=N2)[C@]2(CC[C@H](OC)CC2)C3)c1 (some centres undefined) | – | 0.02 | – | –
C1Cc2[nH]nc(-c3nnn[nH]3)c2C1 | 0.072 | 0.371 | – | –

SMILES | fraction unbound at 5 h (in vitro [1]) | fraction unbound at 5 h (in vitro [2]) | fraction unbound at 5 h (in vitro [3]; PPB) | other results
CC(O)(C(=O)Nc1cccc(S(=O)(=O)c2ccccc2)c1)C(F)(F)F (centres undefined) | 0.0594 | 0.0661 | 0.0909 | –
CC(C)Cn1cnc2c(N)nc3ccccc3c21 [IMIQUIMOD] | 0.179 | 0.0075 | – | logD (physchem [4]; pH 7.4, LogD7.4): 2.52; solubility thermodynamic (physchem [5]): 63.1 µM (≈ 15.2 µg/mL)
NC1=NC(c2ccnc(C(F)(F)F)c2)(c2ccc(F)c(-c3cncnc3)c2)c2cccc(F)c21 (centres undefined) | – | 0.0409 | 0.0293 | –
OC1(c2ccc(Cl)cc2)CCN(Cc2c[nH]c3ccccc23)CC1 | – | 0.0872 | – | logD (physchem [4]; pH 7.4): 2.25; solubility thermodynamic (physchem [5]): 562 µM (≈ 192 µg/mL)
Fc1ccc(-c2c[nH]c(C3CCN(Cc4ccn(-c5ccc(C(F)(F)F)cc5)c4)CC3)n2)cc1 | – | 0.0023 | 0.0009 | –
CCCn1c(=O)[nH]c2nc(-c3ccc(S(=O)(=O)N4CCN(Cc5ccc(Cl)cc5)CC4)cc3)[nH]c2c1=O | 0.0006 | 0.0007 | – | –
COc1ccc(S(=O)(=O)N2CC(C)N(S(=O)(=O)c3ccc(OC)cc3)CC2C)cc1 (centres undefined) | 0.0139 | 0.0179 | – | fraction unbound at 5 h (in vitro [3]): 0.0035
Nc1scc2c(C(=O)NC3CC3)nn(-c3ccc(Cl)cc3)c(=O)c12 | – | 0.0321 | 0.0179 | –
C[C@H](NC(=O)Cc1cc(F)cc(F)c1)C(=O)NC1C(=O)N(C)c2ccccc2-c2ccccc21 (some centres undefined) | – | 0.0171 | 0.0099 | logD (physchem [4]; pH 7.4, LogD7.4): 3.6
N#Cc1c(-c2ccc(-c3ccccc3Cl)cc2)nc2ccncc2c1O | – | 0.0022 | 0.0008 | –
CC(C)S(=O)(=O)N(C)c1cc(C(=O)N[C@@H](Cc2ccccc2)[C@@H](N)CF)cc(NC[C@H]2C[C@@H]2C)n1 | – | 0.0191 | 0.0447 | –
Nc1scc2c(C(=O)NC3CC3)nn(-c3ccc(F)cc3)c(=O)c12 | – | 0.11 | – | logD (physchem [4]; pH 7.4, LogD7.4): 2.8
NC(=O)c1ccc(-n2nnnc2Oc2ccc(Br)cc2)cc1 | 0.0872 | 0.0854 | – | –
CN1C(=N)N[C@](C)(c2cc(-c3cccc(C#N)c3)cs2)CC1=O | – | 0.249 | 0.0836 | –
CC(C)[C@@H]1CC[C@@H](C)C[C@@H]1P(=O)(c1ccccc1)c1ccccc1 | – | 0.0039 | – | –
CC(C)Oc1ccc(-c2nc(-c3cccc4c(CCC(=O)O)c[nH]c34)no2)cc1Cl | – | 0.0005 | – | –
N#Cc1c(-c2ccc(-c3ccccc3OC(F)(F)F)cc2)nc2ccncc2c1O | – | 0.0013 | – | logD (physchem [4]; pH 7.4, LogD7.4): 3.45; solubility thermodynamic (physchem [5]): 3.3 µM (≈ 1.34 µg/mL)
Fc1ccc(-c2cc(C3CCN(Cc4ccn(-c5ccc(C(F)(F)F)cc5)c4)CC3)no2)cc1 | – | 0.0005 | – | –
C[C@@H](CC(=O)OC(C)(C)C)NC(=O)C1=NOC(C(O)(C(F)(F)F)C(F)(F)F)C1 (some centres undefined) | – | 0.201 | – | –
CC(C)NC(=O)c1nn(-c2ccc(Cl)cc2)c(=O)c2c(N)scc12 | – | 0.0219 | 0.0099 | –
O=C(Nc1ccc(Cl)c(C(=O)Nc2cccnc2)c1)c1cccc(C(F)(F)F)c1 | – | 0.0119 | 0.003 | –

SMILES | fraction unbound at 5 h (in vitro [1]) | fraction unbound at 5 h (in vitro [2]) | fraction unbound at 5 h (in vitro [3]; PPB) | other results
Cc1nc(-c2c(F)cc(Cl)cc2-c2cnc([C@@H](C)NC(=O)[C@@](C)(O)C(F)(F)F)c(F)c2)no1 | 0.0358 | 0.0251 | – | –
C[C@H](c1ccc(F)cc1CCCC(=O)O)N(c1cc(F)ccc1F)S(=O)(=O)c1ccc(Cl)cc1 | – | 0.005 | 0.001 | logD (physchem [4]; pH 7.4, LogD7.4): 3.1
Cc1nn(C)c(C)c1-c1ccc(-c2nc3ccncc3c(O)c2C#N)cc1 | – | 0.0343 | – | –
O=C(CC1CCN(Cc2ccn(-c3ccc(C(F)(F)F)cc3)c2)CC1)NC(c1ccncc1)c1ccc(Cl)cc1 (centres undefined) | – | 0.0051 | 0.013 | –
CCCC[C@H](NC[C@@H]1Cc2cccc(c2)CCCCc2cc(cc(N(CCC)S(C)(=O)=O)c2)C(=O)N1)C(=O)NCC(C)C | – | 0.002 | 0.004 | –
COCC#Cc1cccc(C2(c3ccc(OC(F)F)cc3)N=C(N)N3CC(F)(F)CN=C32)c1 (centres undefined) | – | 0.013 | 0.0111 | –
COc1cc(Nc2nc3c(c(Cc4ccccc4)n2)CN(CCO)CC3)ccc1-n1cnc(C)c1 | – | 0.02 | 0.0191 | –
Cn1cc(-c2ccncc2)c(-c2ccc(OCc3ccc4ccccc4n3)cc2)n1 [MARDEPODECT] | 0.0017 | 0.0039 | – | –
O=c1c2cc(-c3ccc(Cl)cc3)oc2ccn1-c1ccc2c(cnn2CCN2CCCC2)c1 | – | 0.0043 | – | –
N#CCOc1ccccc1-c1ccc(-c2nc3ccncc3c(O)c2C#N)cc1 | – | 0.0149 | 0.0011 | –
O=c1[nH]c2cc(C(F)(F)F)ccc2n1-c1cc(C(F)(F)F)ccc1O | 0.0011 | 0.0021 | – | –
CC#Cc1cncc(-c2csc([C@]3(C)CC(=O)N(C)C(N)=N3)c2)c1 | – | 0.17 | 0.119 | –
COc1cc(-n2nnc3cc(-c4ccc(Cl)cc4)sc3c2=O)ccc1N1CC[C@@H](O)C1 | – | 0.0021 | – | logD (physchem [4]; pH 7.4, LogD7.4): 3.15
C/C=C/c1ccc(Oc2nnnn2-c2ccc(C(N)=O)cc2)c(OC)c1 | – | 0.0428 | – | fraction unbound at 5 h (in vitro [3]): 0.0268
c1ccc2nc(COc3ccc(-c4n[nH]cc4-c4ccncc4)cc3)ccc2c1 | 0.0018 | 0.0013 | – | –
O=C(Nc1ccc(Cl)c(S(=O)(=O)N2CCNCC2)c1O)Nc1cccc(F)c1Cl [ELUBRIXIN] | 0.0106 | – | 0.0029 | fraction unbound at 5 h (in vitro [6]): 0.0127; hepatocyte CLint (in vitro [7]): < 3 µL/min/1e6 cells; hepatocyte CLint (in vitro [8]): 41.4 µL/min/1e6 cells; pKa (physchem [9]): 8.5; logD (physchem [4]; pH 7.4, LogD7.4): 2.6; solubility thermodynamic (physchem [5]): 457 µM (≈ 212 µg/mL); pKa (physchem [10]): 5.9
COc1cc(Nc2nc3c(c(COC4CCCC4)n2)COCC3)ccc1-n1cnc(C)c1 | 0.0205 | 0.0149 | – | –
CC#Cc1cncc(-c2cccc(C3(c4cc(C)c(OC)c(C)c4)N=C(C)C(N)=N3)c2)c1 (centres undefined) | – | 0.006 | 0.002 | –
Cn1c(-c2cccc(F)c2)nc2c(N)nc(C#CC3(O)CCCC3)nc21 | – | 0.0752 | 0.119 | –
CCCCCCC(=O)CCCCCC/C=C/C[C@@H](O)[C@H](O)[C@@](N)(CO)C(=O)O [MYRIOCIN] | 0.028 | 0.062 | – | –
CCOc1cc2c(c(F)c1OCC)C(=N)N(CC(=O)c1cc(N3CCOCC3)c(OC)c(C(C)(C)C)c1)C2 [ATOPAXAR] | – | 0.0025 | 0.0021 | –
